Assay [1] relates to Mycobacterium marinum. Nature of the assay: Inhibition of Mycobacterium marinum NAT using isoniazed substrate at 30 uM by acetyl-coA hydrolysis assay.
The target of assay [2] is T1, Arylamine N-acetyltransferase (Mycolicibacterium smegmatis, UniProt O86309).
T1 sequence (O86309 whole entry): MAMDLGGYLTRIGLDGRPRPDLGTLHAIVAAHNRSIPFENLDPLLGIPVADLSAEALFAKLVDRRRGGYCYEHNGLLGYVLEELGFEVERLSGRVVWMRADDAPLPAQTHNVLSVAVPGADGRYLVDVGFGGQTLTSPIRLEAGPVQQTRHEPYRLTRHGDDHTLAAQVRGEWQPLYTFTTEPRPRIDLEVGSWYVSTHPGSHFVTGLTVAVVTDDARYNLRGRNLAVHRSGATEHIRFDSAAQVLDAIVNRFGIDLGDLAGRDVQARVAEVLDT
Nature of the assay: Inhibition of Mycobacterium smegmatis NAT using isoniazed substrate by acetyl-coA hydrolysis assay.

Assay [3] has as its target T1, Arylamine N-acetyltransferase. Put plainly: Inhibition of Mycobacterium smegmatis NAT using 5-aminosalicylate substrate by acetyl-coA hydrolysis assay.
Assay [4] deals with T2, Arylamine N-acetyltransferase (Pseudomonas aeruginosa (strain ATCC 15692 / PAO1 / 1C / PRS 101 / LMG12228), UniProt Q9HUY3).
T2 sequence (Q9HUY3 whole entry): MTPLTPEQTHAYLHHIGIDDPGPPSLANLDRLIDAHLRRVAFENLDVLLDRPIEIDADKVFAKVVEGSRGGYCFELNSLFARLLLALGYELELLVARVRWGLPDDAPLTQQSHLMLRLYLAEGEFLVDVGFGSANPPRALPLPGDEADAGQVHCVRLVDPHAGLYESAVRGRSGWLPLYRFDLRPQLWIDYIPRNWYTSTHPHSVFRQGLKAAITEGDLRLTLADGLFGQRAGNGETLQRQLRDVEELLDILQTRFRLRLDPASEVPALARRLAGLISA
Put plainly: Inhibition of Pseudomonas aeruginosa NAT using isoniazed substrate by acetyl-coA hydrolysis assay.

In assay [5] the target is T2, Arylamine N-acetyltransferase. Put plainly: Inhibition of Pseudomonas aeruginosa NAT using 5-aminosalicylate substrate by acetyl-coA hydrolysis assay.
A short description of assay [6]: Inhibition of Mycobacterium marinum NAT using 5-aminosalicylate substrate by acetyl-coA hydrolysis assay.
Assay [7] is described as follows: Inhibition of Mycobacterium marinum NAT using hydralazine substrate by acetyl-coA hydrolysis assay.
In assay [8] the test system is Mycobacterium tuberculosis. Nature of the assay: Antimicrobial activity against Mycobacterium tuberculosis at 50 ug/ml relative to control. In kind it is functional.
Assay [9] is described as follows: Inhibition of Mycobacterium marinum NAT using isoniazed substrate by acetyl-coA hydrolysis assay.
Assay [10] relates to Mycobacterium marinum. Put plainly: Antimicrobial activity against Mycobacterium marinum at 80 ug/ml. The format is functional, organism-based.
Assay [11] has as its system Mycobacterium marinum. Put plainly: Antimicrobial activity against Mycobacterium marinum at 100 ug/ml. In kind it is functional, organism-based.

Active and inactive are the calls of the source. The rule behind the calls is not given here. Bounds are passed on as bounds.

Consider `CC1(C)NC(=O)N(CC(O)COc2cccc(-c3ccccc3)c2)C1=O` (configuration not stated), for which the inhibition (in general, the relative decrease from the control value, in per cent) in [1] amounted to 6%.

Regarding `CC1(C)NC(=O)N(CC(O)COc2ccccc2-c2ccccc2)C1=O` (configuration not stated), in [1], the inhibition amounted to 24%.

In the case of `Cc1ccccc1OCC(O)CN1C(=O)NC(C)(C)C1=O` (configuration not stated), the inhibition in [1] came to 0.5%.

The compound `CC1(C)NC(=O)N(CC(O)COc2ccccc2-c2cccc3ccccc23)C1=O` (configuration not stated) came in with an inhibition in assay [1] of 28%.

Compound `CC1(C)NC(=O)N(CC(O)COc2ccccc2F)C1=O` (configuration not stated) had an inhibition in [1] of 0%.

In turn, `CC1(C)NC(=O)N(CC(O)COc2ccccc2[N+](=O)[O-])C1=O` (configuration not stated) yielded an inhibition in assay [1] of 4%.

The compound `CC1(C)NC(=O)N(CC(O)COc2ccc(-c3ccccc3)cc2)C1=O` (configuration not stated) came in with an inhibition in [1] of 8%.

With `CC1(C)NC(=O)N(CC(O)COc2ccccc2C2CCCC2)C1=O` (configuration not stated), the IC50 – broadly, the midpoint of a concentration-inhibition curve – in assay [2] stood at 9.4 µM; in assay [3] it was 17.7 µM; in [4], 37 µM; in assay [5], 16.2 µM; in assay [6], 33.1 µM; in [7] it was 1.5 µM. In assay [1], this compound gave an inhibition of 58%. In addition, in [8], testing at 50 µg/mL gave an inhibition of 20%.

With `CC1(C)NC(=O)N(CC(O)COc2ccccc2Br)C1=O` (configuration not stated), the inhibition in [1] worked out at 24%.

Regarding `O=C1NC(c2ccccc2)C(=O)N1CC(O)COc1ccccc1` (configuration not stated), the inhibition in [1] amounted to 0%.

In assay [1], `O=C1CNC(=O)N1CC(O)COc1ccccc1` (configuration not stated) yielded an inhibition of 0%.

Consider `CC1(C)NC(=O)N(CC(O)COc2ccc(C3CCCC3)cc2)C1=O` (configuration not stated), for which the IC50 in assay [2], in assay [3], in assay [4], in assay [5], in [9] and in assay [6] was > 50 µM each time. The same compound had an inhibition in assay [1] of 0%. For the same compound, the result in assay [10] and in assay [11] was inactive.

Values taken from ChEMBL document CHEMBL1667829, “Analysis of β-amino alcohols as inhibitors of the potential anti-tubercular target N-acetyltransferase” (Bioorg Med Chem Lett, 2011).
